What was measured:
[1] = biological target: T1, regulatory domain of human NFATc3 (residues 1-400) (UniProt Q12968)
T1 sequence: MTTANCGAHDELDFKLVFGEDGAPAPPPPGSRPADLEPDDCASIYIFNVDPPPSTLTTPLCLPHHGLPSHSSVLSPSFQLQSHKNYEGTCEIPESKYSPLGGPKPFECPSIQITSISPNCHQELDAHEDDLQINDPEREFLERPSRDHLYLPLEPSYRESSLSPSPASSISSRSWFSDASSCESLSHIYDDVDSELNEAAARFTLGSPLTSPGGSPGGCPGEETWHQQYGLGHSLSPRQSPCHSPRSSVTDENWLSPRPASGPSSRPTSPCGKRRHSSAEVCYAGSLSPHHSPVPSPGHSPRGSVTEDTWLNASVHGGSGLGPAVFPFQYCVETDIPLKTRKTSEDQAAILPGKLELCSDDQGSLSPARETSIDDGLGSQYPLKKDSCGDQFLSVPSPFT

[2] = test system: PD-1-overexpressing Jurkat cells; assay: Small molecule screen: IL2 secretion (AlphaLISA) from stimulated PD-1-overexpressing Jurkat cells; type: cell-based, human; settings: 3.3 μM compound; for Zscore_1 / Zscore_2: IL2 level, α-CD3/α-CD28/α-PD-1 beads; for Zscore_1: replicate 1; for Zscore_2: replicate 2; for Zscore_AVG: average of replicate Z scores
Summary of the method: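 Cells (100,000/well) with compound at 3.3 μM final, stimulated by α-CD3/α-CD28/α-PD-1 Dynabeads at an 8:1 bead:cell ratio. IL2 in supernatants measured by AlphaLISA. Hits scored ≥3 SD from the mean of DMSO-treated, α-PD-1-bead-stimulated controls.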

Compound | in vitro phosphorylation of 15N-labeled NFATc3 (1-400), followed by 2D 15N-HSQC NMR [1] | Zscore_1 [2] | Zscore_2 [2] | Zscore_AVG [2]
recombinant CDK4/cyclin D1 | However, this did not occur when NFAT4 was incubated with CDK4 |  |  | 
CCN(CC)CCCCN1c2ccccc2Oc2ccc(Cl)cc21 [Akt Inhibitor X] |  | 2.25 | 6.382 | 4.316
O=C(O)C=Cc1cc(Br)c(Br)c(Br)c1Br [Casein Kinase II Inhibitor III, TBCA] |  | 1.017 | 1.548 | 1.282
Tpl2 Kinase Inhibitor II |  | −2.398 | −4.19 | −3.294
COc1ccc2c(c1)c(C1=C(c3c[nH]c4ccccc34)C(=O)NC1=O)cn2CCCN(C)C [G? 6983] |  | −9.778 | −9.075 | −9.426
NCCNc1ncc(C(N)=O)c(Nc2cccc(C(F)(F)F)c2)n1 [Syk Inhibitor II] |  | −0.7866 | −0.6851 | −0.7358
N#Cc1c(C2CCNCC2)cc(-c2c(O)cccc2OCC2CC2)nc1N [IKK-2 Inhibitor VIII] |  | −0.6795 | −0.365 | −0.5222
O=c1cc(N2CCNCC2)oc2c(-c3ccccc3)cccc12 [LY 303511] |  | 1.21 | −0.8685 | 0.1705
CCOC(=O)c1c(C)[nH]c(/C=C2\C(=O)Nc3ccccc32)c1C [VEGF Receptor 2 Kinase Inhibitor I] |  | −0.8038 | −1.721 | −1.262
CCCOc1ccc(/C=C2/SC(=O)NC2=O)cc1 [PIM1/2 Kinase Inhibitor VI] |  | −0.7695 | −1.561 | −1.165
CCN(CC)CCNC(=O)c1c(C)[nH]c(/C=C2\C(=O)Nc3ccc(Cl)cc32)c1C [SU11652] |  | 8.033 | −6.691 | 0.671
CC[C@H](CO)Nc1nc(NCc2ccccc2O)c2ncn(C(C)C)c2n1 [Olomoucine II] |  | 0.3445 | 2.103 | 1.224
COc1ccc(C(=O)Nc2sc3c(c2C(N)=O)CCCC3)cc1OC [Flt-3 Inhibitor] |  | 1.516 | 2.085 | 1.801
CCCCc1c(-c2ccc(OC)cc2)[nH]c2nccnc12 [Aloisine, RP106] |  | −0.8722 | −4.242 | −2.557

From patent publication US11865176B2, “Compositions and methods of modulating anti-tumor immunity” (Dana-Farber Cancer Institute, Inc., priority 2016, dated 2024)
